Molecules are shown by their SMILES.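 Values below derive from 48-hour exposures of cells grown in 96-well plates, with endpoints linearly interpolated between the two concentrations bracketing the appropriate inhibition level. Abbreviation: GI50, concentration required for 50% inhibition of growth.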 Active and inactive are the calls of the source. No stated cut-off is given here; in the data, active = GI50 up to about 1.1 µM and inactive = higher.

Among the test systems are DMS-273; DMS-114; LXFL 529; DLD-1; XF498; M19-MEL; HOP-18; RXF 631; BT-549.
Test in all cases: NCI tumour cell line growth inhibition, 48 h

Regarding `N=c1oc2c(O)c(O)ccc2cc1C(N)=O`, the GI50 in the assay on DMS-273 is > 100 µM (inactive); in the assay with DMS-114, 35.4 µM (inactive); with LXFL 529, 31.6 µM (inactive); in the assay on DLD-1, > 100 µM (inactive); in the assay with XF498, 25.2 µM (inactive); in the assay on M19-MEL, 21.3 µM (inactive).
With `COc1cc2c3c(c1OC)C(=O)C=C3N(S(=O)(=O)c1ccc(C)cc1)CC2`, the GI50 in the assay on HOP-18 was > 100 µM (inactive); in the assay with DMS-273, > 100 µM (inactive); in the assay with DMS-114, > 100 µM (inactive); in the assay on LXFL 529, > 100 µM (inactive); with DLD-1 it was > 100 µM (inactive); in the assay on XF498 it was 72.9 µM (inactive). The GI50 in the assay with M19-MEL was > 100 µM (inactive).
For the compound `Cc1ccc(NC(=O)CCc2nnc(N)o2)cc1`, the GI50 with DMS-273 is > 100 µM (inactive); with DMS-114 it was > 100 µM (inactive); in the assay on LXFL 529 it was > 100 µM (inactive); in the assay on DLD-1, > 100 µM (inactive); in the assay with XF498, > 100 µM (inactive); with RXF 631, > 31.6 µM (inactive). Further, the GI50 in the assay with M19-MEL was > 100 µM (inactive).
With `CN1C(=O)c2cccc3c([N+](=O)[O-])ccc(c23)C1=O`, the GI50 in the assay with HOP-18 was 17.1 µM (inactive); with DMS-273, 4.23 µM (inactive); in the assay on DMS-114 it was 4.1 µM (inactive); in the assay with LXFL 529, 1.46 µM (inactive); with DLD-1 it was 2.82 µM (inactive); in the assay with RXF 631, 2.58 µM (inactive). Also, the GI50 in the assay on M19-MEL is 10.4 µM (inactive).
For the compound `Cc1ccc(S(=O)(=O)ON/N=C2/C3OC3[C@@H]3CCCC[C@H]23)cc1` (stereo not given in full), the GI50 with HOP-18, in the assay with DMS-273, with LXFL 529, in the assay on DLD-1, with XF498 and in the assay on M19-MEL was > 100 µM (inactive) each time.
In the case of `C#CCSc1nc(N)c2ncn(C3OC(COP(=O)(O)O)C(O)C3O)c2n1` (stereo not given), the GI50 in the assay with HOP-18, with DMS-273, in the assay with DLD-1, in the assay on XF498 and in the assay with M19-MEL was > 239 µM (inactive) each time.
Regarding `O=C(O)/C=C/n1c2ccccc2c(=O)c2ccccc21`, the GI50 with DMS-273, in the assay on DMS-114, in the assay with DLD-1, in the assay on XF498, in the assay with RXF 631 and in the assay with M19-MEL was > 100 µM (inactive) each time.
For `Nc1ncnc2c1ncn2C1OC(CSC(F)F)C(O)C1O` (stereo not given), the GI50 in the assay on HOP-18, in the assay on DMS-273, in the assay on DMS-114, in the assay with LXFL 529, in the assay with DLD-1 and in the assay with RXF 631 was > 100 µM (inactive) in each case.
As for `COc1ccc(/C(Cl)=C(\C=O)c2ccc(Br)cc2)cc1OC`, the GI50 in the assay on HOP-18 was 48.4 µM (inactive); with DMS-273 it was > 100 µM (inactive); in the assay on LXFL 529, > 100 µM (inactive); in the assay on DLD-1, > 100 µM (inactive); in the assay on XF498 it was 9.33 µM (inactive); in the assay with RXF 631, > 62.4 µM (inactive). Also, the GI50 in the assay on M19-MEL is > 100 µM (inactive).
Take `CCOC(=O)NC(=O)c1cn(CCN2CCNCC2)c(=O)[nH]c1=O`: the GI50 in the assay with HOP-18, in the assay on DMS-114, in the assay on LXFL 529, with DLD-1, with XF498 and in the assay with M19-MEL was > 100 µM (inactive) in each case.
For `O=S1(=O)CS(=O)(=O)OCCCCCO1`, the GI50 with HOP-18, with DMS-273, in the assay with DMS-114, in the assay with LXFL 529, in the assay with DLD-1 and with RXF 631 was > 100 µM (inactive) in each case. Moreover, the GI50 in the assay on M19-MEL is > 100 µM (inactive).
Regarding `C=C(CN(C)C)C(=O)c1ccc(C)cc1C`, the GI50 in the assay on HOP-18 was 16 µM (inactive); with DMS-273 it was 18.2 µM (inactive); in the assay on DMS-114, 21.6 µM (inactive); with LXFL 529, 12.5 µM (inactive); with DLD-1, 3.88 µM (inactive); in the assay with XF498 it was 12 µM (inactive). The GI50 in the assay with RXF 631 is 20.4 µM (inactive); in the assay with M19-MEL it was 18.7 µM (inactive); with BT-549, 3.59 µM (inactive).
Turning to `Cc1cn(C2CC(CCCO)C(CO)O2)c(=O)[nH]c1=O` (stereo not given), the GI50 in the assay on DMS-273, in the assay with DMS-114, with LXFL 529, with DLD-1, in the assay with XF498 and with M19-MEL was > 100 µM (inactive) each time.
Take `Cc1c(C(=O)c2ccccc2C(=O)O)c2ccccc2n1C`: the GI50 with DMS-273, in the assay with DMS-114, in the assay on LXFL 529, in the assay with DLD-1, in the assay with XF498 and with M19-MEL was > 100 µM (inactive) each time.
Regarding `FC(F)(F)c1ccc2nc(NCc3ccccc3)c(-c3ccccc3)nc2c1`, the GI50 with HOP-18 was 35.4 µM (inactive); in the assay on DMS-273, 35.2 µM (inactive); with LXFL 529, 43.3 µM (inactive); in the assay on XF498, 15.1 µM (inactive); with M19-MEL, 32.1 µM (inactive).
As for `CCOC(=O)[C@H]1Nc2ccc(Cl)cc2[C@H]2CCC[C@@H]12`, the GI50 was 53.2 µM (inactive) in the assay on HOP-18; > 100 µM (inactive) in the assay with DMS-273; 95.3 µM (inactive) in the assay with DMS-114; > 100 µM (inactive) in the assay with LXFL 529; > 100 µM (inactive) in the assay with DLD-1; > 100 µM (inactive) with XF498. Besides, in the assay with M19-MEL, the GI50 was > 100 µM (inactive).
With `CC(C)N(C(=O)C12C3C4C1C1C4(C#N)C3C12C(=O)O)C(C)C` (stereo not given), the GI50 with HOP-18, with DMS-273, in the assay on DMS-114, in the assay on LXFL 529, in the assay on DLD-1 and in the assay on XF498 was > 100 µM (inactive) each time. Besides, the GI50 in the assay on RXF 631 and with M19-MEL was > 100 µM (inactive) throughout.
Turning to `C[C@H]1[C@H](C)CC[C@]2(C(=O)O)CCC3(COC(=O)/C=C/c4ccc(O)cc4)C(=CCC4[C@@]5(C)CC[C@H](O)C(C)(C)C5CC[C@]43C)[C@H]12` (stereo not given in full), the GI50 is 18.3 µM (inactive) in the assay on HOP-18; 4.76 µM (inactive) in the assay with DMS-273; 3.72 µM (inactive) in the assay with DMS-114; 3.83 µM (inactive) with LXFL 529; 3.39 µM (inactive) with DLD-1; 7.55 µM (inactive) with RXF 631. Also, the GI50 in the assay with M19-MEL is 22.3 µM (inactive).
With `CC(=O)OC1C[C@H]2C(OC(=O)c3ccccc3)C3C4(OC(C)=O)COC4C[C@H](OC(C)=O)[C@@]3(C)C(OC(C)=O)[C@H](OC(C)=O)C(=C1C)C2(C)C` (stereo not given in full), the GI50 in the assay on HOP-18 is 20.1 µM (inactive); with DMS-273, 24.9 µM (inactive); in the assay on DMS-114, 22.2 µM (inactive); in the assay on LXFL 529, 22.3 µM (inactive); in the assay on DLD-1, 32.7 µM (inactive); in the assay on XF498 it was 19.8 µM (inactive). Further, the GI50 in the assay on M19-MEL is 57.9 µM (inactive).
With `O=C1c2ccsc2C(=O)c2sc(CO)cc21`, the GI50 was 0.0349 µM (active) in the assay with HOP-18; 0.0327 µM (active) in the assay with DMS-273; 0.161 µM (active) in the assay on LXFL 529; 0.176 µM (active) with DLD-1; 0.352 µM (active) in the assay on XF498; 0.0182 µM (active) in the assay on BT-549.
Turning to `C/C(=N\NC(=S)N1CCCCCC1)c1ccccn1`, the GI50 is 0.123 µM (active) in the assay on HOP-18; < 0.001 µM (active) with DMS-273; < 0.001 µM (active) in the assay on DMS-114; < 0.001 µM (active) in the assay on LXFL 529; < 0.001 µM (active) with DLD-1; 0.0014 µM (active) in the assay with XF498. Besides, the results for the GI50 with RXF 631, with M19-MEL and in the assay on BT-549 were 0.0386 µM (active), 0.0883 µM (active) and 0.17 µM (active), respectively.

For the origin of these results see ChEMBL document CHEMBL1201862, “PubChem BioAssay data set” (2004).
